Data from patent US9340507B2, “Substituted 4-pyridones and their use as inhibitors of neutrophil elastase activity” (Boehringer Ingelheim International GmbH, priority 2012, dated 2016).

target: Human neutrophil elastase (Homo sapiens (Human), UniProt P08246); assay: Human Neutrophil Elastase Assay; type: biochemical; settings: substrate MeOSuc-Ala-Ala-Pro-Val-AMC 250 μM, pH 7.5, fluorescence
Sequence (P08246 30-267): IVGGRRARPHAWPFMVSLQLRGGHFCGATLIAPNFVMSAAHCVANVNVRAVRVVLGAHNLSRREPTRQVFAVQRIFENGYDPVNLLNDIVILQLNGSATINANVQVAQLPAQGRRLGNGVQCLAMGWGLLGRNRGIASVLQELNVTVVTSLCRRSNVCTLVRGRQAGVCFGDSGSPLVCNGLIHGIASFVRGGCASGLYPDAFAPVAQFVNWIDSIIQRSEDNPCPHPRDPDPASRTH

| Compound | IC50 |
| --- | --- |
| Cc1c(-c2cccc(C(F)(F)F)c2)c(=O)c(C(=O)NCc2ccc([S+](C)[O-])cc2)cn1C(C)C (single isomer, unassigned) [Example 27.1A] | 5.4 nM |
| Cc1c(-c2cccc(C(F)F)c2)c(=O)c(C(=O)NCc2ccc(S(C)(=O)=O)cc2)cn1C(C)C [Example 4.14] | 11 nM |
| Cc1cc(S(C)(=O)=O)ccc1CNC(=O)c1cn(C(C)C)c(C)c(-c2cccc(C(F)F)c2)c1=O [Example 37, 5-(3-Difluoromethyl-phenyl)-1-isopropyl-6-methyl-4-oxo-1,4-dihydro-pyridine-3-carboxylic acid 4-methanesulfonyl-2-methyl-benzylamide] | 27 nM |
| Cc1c(-c2cccc(C(F)(F)F)c2)c(=O)c(C(=O)NCc2cn3c(n2)S(=O)(=O)CC3)cn1C(C)C [Example 38, 1-Isopropyl-6-methyl-4-oxo-5-(3-trifluoromethyl-phenyl)-1,4-dihydro-pyridine-3-carboxylic acid (1,1-dioxo-2,3-dihydro-1H-1λ^6-imidazo[2,1-b]thiazol-6-ylmethyl)-amide] | 5.3 nM |
| Cc1c(-c2cccc(C(F)F)c2)c(=O)c(C(=O)NCc2ccc(S(C)(=O)=O)s2)cn1C(C)C [Example 40, 5-(3-Difluoromethyl-phenyl)-1-isopropyl-6-methyl-4-oxo-1,4-dihydro-pyridine-3-carboxylic acid (5-methanesulfonyl-thiophen-2-ylmethyl)-amide] | 31 nM |
| COC[C@H](C)n1cc(C(=O)NCc2ccc(S(C)(=O)=O)cc2)c(=O)c(-c2cccc(C(F)F)c2)c1C [Example 42, (S)-5-(3-Difluoromethyl-phenyl)-1-(2-methoxy-1-methyl-ethyl)-6-methyl-4-oxo-1,4-dihydro-pyridine-3-carboxylic acid 4-methanesulfonyl-benzylamide] | 8.1 nM |
| COC[C@@H](C)n1cc(C(=O)NCc2ccc(S(C)(=O)=O)cc2)c(=O)c(-c2cccc(C(F)F)c2)c1C [Example 44, (R)-5-(3-Difluoromethyl-phenyl)-1-(2-methoxy-1-methyl-ethyl)-6-methyl-4-oxo-1,4-dihydro-pyridine-3-carboxylic acid 4-methanesulfonyl-benzylamide] | 45 nM |
| Cc1c(-c2cccc(C(F)(F)F)c2)c(=O)c(C(=O)NCc2ccc(S(C)(=O)=O)cc2)cn1CCF [Example 45, 1-(2-Fluoro-ethyl)-6-methyl-4-oxo-5-(3-trifluoromethyl-phenyl)-1,4-dihydro-pyridine-3-carboxylic acid 4-methanesulfonyl-benzylamide] | 34 nM |
| Cc1c(-c2cccc(C(F)(F)F)c2)c(=O)c(C(=O)NCc2ccc(S(C)(=O)=O)cc2)cn1CC(F)F [Example 46, 1-(2,2-Difluoro-ethyl)-6-methyl-4-oxo-5-(3-trifluoromethyl-phenyl)-1,4-dihydro-pyridine-3-carboxylic acid 4-methanesulfonyl-benzylamide] | 46 nM |
| COc1cc(S(C)(=O)=O)ccc1CNC(=O)c1cn(C(C)C)c(C)c(-c2cccc(C(F)(F)F)c2)c1=O [Example 47, 1-Isopropyl-6-methyl-4-oxo-5-(3-trifluoromethyl-phenyl)-1,4-dihydro-pyridine-3-carboxylic acid 4-methanesulfonyl-2-methoxy-benzylamide] | 38 nM |
| Cc1c(-c2cccc(C(F)(F)F)c2)c(=O)c(C(=O)NCc2ccc3c(c2)C=CS3(=O)=O)cn1C(C)C [Example 48, 1-Isopropyl-6-methyl-4-oxo-5-(3-trifluoromethyl-phenyl)-1,4-dihydro-pyridine-3-carboxylic acid (1,1-dioxo-1H-1λ^6-benzo[b]thiophen-5-ylmethyl)-amide] | 11 nM |
| COc1cc(CNC(=O)c2cn(C(C)C)c(C)c(-c3cccc(C(F)(F)F)c3)c2=O)ccc1S(C)(=O)=O [Example 49, 1-Isopropyl-6-methyl-4-oxo-5-(3-trifluoromethyl-phenyl)-1,4-dihydro-pyridine-3-carboxylic acid 4-methanesulfonyl-3-methoxy-benzylamide] | 47 nM |
| Cc1c(-c2cccc(C(F)F)c2)c(=O)c(C(=O)NCc2ccc3c(c2)C=CS3(=O)=O)cn1C(C)C [Example 50, 5-(3-Difluoromethyl-phenyl)-1-isopropyl-6-methyl-4-oxo-1,4-dihydro-pyridine-3-carboxylic acid (1,1-dioxo-1H-1λ^6-benzo[b]thiophen-5-ylmethyl)-amide1] | 7.8 nM |

system: not listed separately; assay: Determination of aqueous solubility from DMSO stock solutions (kinetic solubility method); type: physicochemical; settings: McIlvaine buffer pH 6.8, 24 h shaking, 2.5% DMSO, range 0.001 to 0.125 mg/ml
Method: Determination of Aqueous Solubility from DMSO Stock Solutions (“Kinetic Solubility Method”)
The aqueous solubility of examples of this invention is determined by comparing the amount dissolved in buffer to the amount dissolved in an acetonitrile/water (1/1) solution. Starting from a 10 mM DMSO stock solution, aliquots are diluted with acetonitrile/water (1/1) and McIlvaine buffer pH 6.8, respectively. After 24 h of shaking, the liquid phase is filtered and analyzed by LC-UV. The amount dissolved in buffer is compared to the amount dissolved in the acetonitrile/water (1/1) solution. Solubility is measured from 0.001 to 0.125 mg/ml at a DMSO concentration of 2.5%.

| Compound | aqueous solubility at pH 6.8 |
| --- | --- |
| Cc1c(-c2cccc(C(F)(F)F)c2)c(=O)c(C(=O)NCc2ccc([S+](C)[O-])cc2)cn1C(C)C (single isomer, unassigned) [Example 27.1A] | 0.081 mg/mL |
| Cc1c(-c2cccc(C(F)F)c2)c(=O)c(C(=O)NCc2ccc(S(C)(=O)=O)cc2)cn1C(C)C [Example 4.14] | 0.076 mg/mL |
